Laboratory results taken from patent publication US20220325242A1, “IDH2 INHIBITION FOR PRODUCING T-CELLS AND B-CELLS WITH A MEMORY PHENOTYPE” (Universite de Lausanne, priority 2019, published 2022).

Legend:
OT1 CD8+ T-cells = test: Flow cytometry of surface activation and memory markers on in vitro cultured OT1 CD8+ T-cells; type: cell-based, mouse; conditions: 5 μM inhibitor day 0-3, flow cytometry on day 3 and 7
Description: Example 2. In vitro culture of splenocytes comprising CD8+ T-cells. OT1 splenocytes (as described in Example 1) were cultured for 3 days at a concentration of 10^6 cells per mL in RPMI medium (Gibco 61870-01) supplemented with 10% FCS, (Gibco 10270-106), 1% Penicillin/Streptomycin (P/S; Gibco 15070-063), 0.1% 13-mercaptoethanol, 1% HEPES (Gibco 15630-080), 1× Non-essential amino acids (Gibco 11140-035), 1% L-glutamine (Gibco 25030-081), 1 mM Sodium Pyruvate (Gibco 11360-039), 100 U/m1 hIL-2 (Glaxo-IMB) and 1 μg/ml ovalbumin N4 peptide (SIINFEKL). To evaluate the effects of IDH2 inhibition on T-cell differentiation, 5 μM of a small molecule IDH2 inhibitor (AG221 or AGI6780) or a DMSO solvent control was added during this 3-day culture period. At day 3, a fraction of the splenocytes was collected and the remaining cells were cultured for 4 additional days with 100 U/ml hIL-2 and 10 ng/ml hIL-7 (Peprotech 200-07) supplementation after washing out the inhibitors and the ovalbumine N4 peptide (FIG. 1). At day 3 and day 7, the activation and differentiation state of CD8+ T-cells was determined by gene expression analysis, flow cytometry and extracellular metabolic flux analyses (see Example 3).
Cells were incubated in a live/dead stain (Fixable aqua dead cell stain kit, Invitrogen) followed by an incubation with different antibody panels.
Antibody panel to determine the differentiation and activation state of in vitro cultured T-cells (see Examples 2 and 4): anti-CD8-PE-texas-Red, anti-CD62L-FITC, anti-CD127-PE, anti-CD27-PerCP-Cy5.5, anti-CD71-PE-Cy7, anti-CD44-APC-Cy7, anti-CD98-APC, anti-CD25-Pacific blue (BD Pharmingen and eBioscience, San Diego, Calif., USA). All those antigens are surface molecules. Cells were gated on living single CD8+ cells before analysis of activation and memory marker expression. For the unstained control, cells were stained with the live/dead stain and anti-CD8-PE-texas-Red.
Cells were acquired on LSR-II flow cytometers from the flow cytometry facility of UNIL and data were analyzed with FlowJo™ 10 software. Antibodies were purchased from BD Phamingen (San Diego, Calif., USA), eBioscience (San Diego, Calif., USA, and Biolegend (San Diego, Calif., USA).

[1] = tested on: human CD8+ T-cells from umbilical cord blood; test: CD62L flow cytometry of human cord blood mononuclear cells (CBMC); type: cell-based; conditions: day 11; AG221 5 μM, MK2206 1 μM; DMSO control about 35%
Description: (§1) Methods: Mononuclear Cells were isolated from fresh umbilical cord blood on a Percoll Gradient (CBMCs). 10^4 CBMC's were seeded per well in a round bottom 96-well plate in RPMI with 10% human serum, and activated with (magnetic) αCD3/CD28 at a 1:2 cell:bead ratio and 300 U/ml rhIL-2, in the presence of 5 μM AG221 or DMSO, or 1 μM MK2206 (AKT inhibitor). After 11 days of culture, CD62L expression was analyzed by flow cytometry on a fraction of the cells (FIG. 15A). The other cells were washed 2 times and placed in a magnet to remove the inhibitors and the αCD3/CD28 beads. The cells were then rested for 4 hours before restimulating them for 4 hours with 1 ng/ml Phorbol 12-Myristate 13-Acetate (PMA, a PKC activator) and 50 μg/ml Ionomycin (a Ca^2+ ionophore, activating NF-KB and NFAT) in the presence of 50 μ/ml golgi inhibitor (Brefeldin A, BFA), allowing for the measurement of intracellular accumulation of different cytokines by flow cytometry.

human CD8+ T-cells = test: Cytokine expression after PMA and Ionomycin restimulation of human CBMC-derived T-cells; type: cell-based; conditions: day 11 cells, inhibitors washed out, PMA and ionomycin 4 hours
Description: as §1

| Compound | CD62L surface expression compared to DMSO (OT1 CD8+ T-cells) | other surface markers (CD25, CD44, CD71, CD98, CD27, CD127) compared to DMSO (OT1 CD8+ T-cells) | CD8+ cells expressing CD62L [1] | TNF expression upon restimulation (human CD8+ T-cells) | expression of effector cytokine IFNγ upon restimulation (human CD8+ T-cells) | production of IL-2 upon restimulation (human CD8+ T-cells) |
| --- | --- | --- | --- | --- | --- | --- |
| O=C(Nc1cccc(C(F)(F)F)c1)Nc1cc(S(=O)(=O)NC2CC2)ccc1-c1ccsc1 [AGI6780, 1-[5-(cyclopropylsulfamoyl)-2-thiophen-3-ylphenyl]-3-[3-(trifluoromethyl)phenyl]urea] | increased | generally unchanged |  |  |  |  |
| NC1(c2ccc(-c3nc4ccn5c(=O)[nH]nc5c4cc3-c3ccccc3)cc2)CCC1 [MK2206] |  |  | about 75% | unaffected | detrimental | unaltered |
